System: rats exposed to a low-pressure blast wave
Conditions: 30 days supplementation, 33/49

Structure (SMILES): NCCC(=O)O [BA, beta-alanine]
- prevalence of well-adapted animals: 67%

Source: patent US20180064153A1, “Methods of Protecting Against Brain Injury” (priority 2016, published 2018)
